Experimental data as given in patent US6369225B1, “Compounds having activity as inhibitors of cytochrome P450RAI” (Allergan Sales, Inc., priority 2000, dated 2002).

Experiments:
RARγ = biological target: T1, RARγ (Homo sapiens, UniProt P13631); assay: ligand binding assay, RARγ; details: Kd line of EC50/(EFFICACY)/Kd, read-out: RAR Kd γ
T1 sequence (P13631 1-454): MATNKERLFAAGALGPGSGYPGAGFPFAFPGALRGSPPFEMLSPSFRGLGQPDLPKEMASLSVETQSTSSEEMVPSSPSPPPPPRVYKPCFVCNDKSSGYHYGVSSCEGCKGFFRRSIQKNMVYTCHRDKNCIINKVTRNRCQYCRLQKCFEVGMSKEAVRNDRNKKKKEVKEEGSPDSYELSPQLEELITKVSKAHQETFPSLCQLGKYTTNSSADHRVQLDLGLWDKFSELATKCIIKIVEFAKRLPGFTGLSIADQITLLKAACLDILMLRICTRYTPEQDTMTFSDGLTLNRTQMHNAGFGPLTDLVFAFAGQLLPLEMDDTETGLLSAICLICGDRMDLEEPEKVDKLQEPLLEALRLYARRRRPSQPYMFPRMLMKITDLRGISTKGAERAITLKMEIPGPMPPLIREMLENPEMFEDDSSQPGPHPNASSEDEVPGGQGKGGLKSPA

P450RAI-1 = biological target: T2, P450RAI-1 (Homo sapiens, UniProt O43174); assay: P450RAI-1 cell-based inhibitor assay; details: P450RAI-1 stably transfected HeLa cells, [3H]-RA metabolism, 3 hours at 37° C.; read-out: P450RAI INHIBITION DATA INTACT HELA IC50
T2 construct: expressed in transfected cells; host or cells: HeLa cells, stably transfected, hygromycin selection
T2 sequence (O43174 1-497): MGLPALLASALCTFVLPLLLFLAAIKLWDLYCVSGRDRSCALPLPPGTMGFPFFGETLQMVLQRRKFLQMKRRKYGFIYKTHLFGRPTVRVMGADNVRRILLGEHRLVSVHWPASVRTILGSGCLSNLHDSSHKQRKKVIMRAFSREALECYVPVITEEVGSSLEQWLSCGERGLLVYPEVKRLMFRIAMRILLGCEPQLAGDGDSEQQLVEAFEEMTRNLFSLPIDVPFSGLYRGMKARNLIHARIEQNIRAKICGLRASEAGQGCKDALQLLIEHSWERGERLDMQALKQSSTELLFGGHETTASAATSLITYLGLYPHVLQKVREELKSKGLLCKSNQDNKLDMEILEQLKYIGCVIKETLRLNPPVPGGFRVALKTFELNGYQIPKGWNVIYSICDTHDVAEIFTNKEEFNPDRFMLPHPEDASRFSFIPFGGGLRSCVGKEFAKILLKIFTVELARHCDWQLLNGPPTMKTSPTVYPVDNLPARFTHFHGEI
Method in brief: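 HeLa cells stably expressing the enzyme (5×10^5/well) incubated 3 h at 37 °C with 0.05 μCi [3H]-all-trans-RA and compound at 10, 1 or 0.1 μM in triplicate. Water-soluble radioactive metabolites counted by scintillation; IC50 derived manually from log-transformed data.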

RARβ = biological target: T3, RARβ (Homo sapiens, UniProt P10826); assay: chimeric receptor transactivation assay, RARβ; type: cell-based; details: EC50 line of EC50/(EFFICACY)/Kd, read-out: RAR EC50 β
T3 sequence (P10826 183-417 limits assumed): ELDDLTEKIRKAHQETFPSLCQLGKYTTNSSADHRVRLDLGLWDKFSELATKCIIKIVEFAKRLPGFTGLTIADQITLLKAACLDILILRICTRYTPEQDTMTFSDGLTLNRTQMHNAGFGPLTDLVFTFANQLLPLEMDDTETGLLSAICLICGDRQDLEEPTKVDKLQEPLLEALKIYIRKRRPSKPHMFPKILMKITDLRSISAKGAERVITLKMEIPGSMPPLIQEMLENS
Text: Assays described below measure the ability of a compound to bind to, and/or activate various retinoid receptor subtypes. When in these assays a compound binds to a given receptor subtype and activates the transcription of a reporter gene through that subtype, then the compound is considered an agonist of that receptor subtype. […] In the below described assays the ability of the compounds to bind to RARα, RARβ, RARγ, RXRα, RXRβ and RXRγ receptors, and the ability or inability of the compounds to activate transcription of a reporter gene through these receptor subtypes can be tested.
As far as specific assays are concerned, a chimeric receptor transactivation assay which tests for agonist-like activity in the RARα, RARβ, AND RARγ, receptor subtypes, and which is based on work published by Feigner P. L. and Holm M. (1989) Focus, 112 is described in detail in U.S. Pat. No. 5,455,265. The specification of U.S. Pat. No. 5,455,265 is hereby expressly incorporated by reference. The numeric results obtained with several preferred compounds of this invention in this assay are shown below in Table 1.

SMILES	Kd (RARγ)	IC50 (P450RAI-1)	EC50 (RARβ)
CC(C)OC1(c2ccc(C#Cc3ccc(C(=O)O)cc3)cc2)CC1 [Compound 73, 4-[4-(1-Isopropoxycyclopropyl)-phenylethynyl]-benzoic Acid]	351 nM	> 10 µM	22.5 nM
Cc1cc(C#Cc2ccc(C(=O)O)cc2)ccc1C1(OC(C)C)CC1 [Compound 85, 4-[4-(1-Isopropoxycyclopropyl)-3-methyl-phenylethynyl]-benzoic Acid]	302 nM	> 10 µM	3.5 nM
CCCNC1(c2ccc(C#Cc3ccc(C(=O)O)cc3)cc2)CC1 [Compound 108, 4-[4-(1-Propylamino-cyclopropyl)-phenylethynyl]-benzoic Acid]	13000 nM	> 10 µM	283 nM
CC1(C)CCC(=O)c2ccc(C#Cc3ccc(CC(=O)O)cc3)cc21 [Compound 5, 4-[(8,8-Dimethyl-5-oxo-5,6,7,8-tetrahydro-naphthalene-2-yl-ethynyl)-phenyl]-acetic Acid]	> 10000 nM	0.55 µM	11 nM
CC1(C)CC2(CC2)Oc2ccc(C#Cc3ccc(C(=O)O)cc3)cc21 [Compound 40, Benzoic Acid, 4-[(3,4-dihydro-4,4-dimethylspiro[2H-1-benzopyran-2,1′-cyclopropane]-6-yl)ethynyl]-]	363 nM	1.7 µM	1.2 nM
COC1(c2ccc(C#Cc3ccc(C(=O)O)cc3)cc2)CC1 [Compound 69, 4-[4-(1-Methoxycyclopropyl)-phenylethynyl]-benzoic Acid]	501 nM	> 10 µM	12 nM
CN(C1CC1)C1CCC(C)(C)c2cc(C#Cc3ccc(C(=O)O)cc3)ccc21 (stereo not drawn) [Compound 3, 4-[(5-Cyclopropyl-methyl-amino)-8,8-dimethyl-5,6,7,8-tetrahydro-naphthalene-2yl-ethynyl]-benzoic Acid]	158 nM	3 µM	4.8 nM
CCCN(CCC)C1(c2ccc(C#Cc3ccc(C(=O)O)cc3)cc2)CC1 [Compound 110, 4-[4-(1-Dipropylamino-cyclopropyl)-phenylethynyl]-benzoic Acid]	< 10000 nM	> 10 µM	74 nM
O=C(O)c1ccc(C#Cc2ccc(C3(NCc4ccccc4)CC3)cc2)cc1 [Compound 112, 4-[4-(1-Benzylamino-cyclopropyl)-phenylethynyl]-benzoic Acid]	685 nM	> 10 µM	335 nM
CCc1cc(C#Cc2ccc(C(=O)O)cc2)ccc1C1(OCc2ccccc2)CC1 [Compound 93, 4-[4-(1-Benzyloxycyclopropyl)-3-ethyl-phenylethynyl]-benzoic Acid]	358 nM	> 10 µM	20 nM
CC1(C)CC2(CC2)Oc2ccc(C#Cc3ccc(C(=O)O)c(F)c3)cc21 [Compound 44, 2-Fluoro-benzoic Acid, 4-[(3,4-dihydro-4,4-dimethylspiro[2H-1-benzopyran-2,1′-cyclopropane]-6-yl)ethynyl]-]	392 nM	0.27 µM	1.7 nM
Cc1cc(C#Cc2ccc(C(=O)O)cc2)ccc1C1(OCC(C)(C)C)CC1 [Compound 89, 4-[4-[1-(2,2-Dimethylpropyloxy)-cyclopropyl]-3-methyl-phenylethynyl]-benzoic Acid]	475 nM	> 10 µM	26 nM
CN(C1CC1)C1CCC(C)(C)c2cc(C#Cc3ccc(CC(=O)O)cc3)ccc21 (stereo not drawn) [Compound 8, 4-[(5-(Cyclopropyl-methyl-amino)-8,8-dimethyl-5,6,7,8-tetrahydro-naphthalene-2-yl-ethynyl)-phenyl]-acetic Acid]	25000 nM	0.4 µM	363 nM
Cc1cc(C#Cc2ccc(C(=O)O)cc2)ccc1C1(OCc2ccccc2)CC1 [Compound 81, 4-[4-(1-Benzyloxycyclopropyl)-3-methyl-phenylethynyl]-benzoic Acid]	1060 nM	> 10 µM	490 nM
